Test results published in US20220062190A1, “Therapeutic Agent and Nutraceutical Compositions And Methods for Making and Using Same” (NUREVELATION, LLC, priority 2020, published 2022).
Counter-ions that a name gives are not always drawn.

system: not listed separately; assay: Solubility in water when preparing mass spectrometry standards; assay type: physicochemical; details: standard and batch prepared in methanol instead
Protocol: Samples for mass spectrometry were weighed and then concentrated to 5 mg/mL. The samples were further diluted to 0.1 mg/mL for analysis in 50/50 water to methanol. Standards were prepared to 20 μg/mL in optima grade methanol or water. The following standards were prepared in water at 20 μg/mL: bethanechol chloride, chloroquine diphosphate, cyclobenzaprine hydrochloride, D-penicillamine, ondansetron hydrochloride, venlafaxine hydrochloride, and donepezil hydrochloride.

With `Cc1nc2n(c(=O)c1CCN1CCC(c3noc4cc(F)ccc34)CC1)CCCC2` [Risperidone] the solubility in water was “insolubility in water”.

system: movement disorder due to antipsychotics known as dystonia and parkinsonism; assay: not given; details: use column of Table 1A; cited from earlier work

In the case of `CN1[C@@H]2CC[C@H]1C[C@@H](OC(c1ccccc1)c1ccccc1)C2` [Benztropine], the duration of benefits is given as at most 10 h.

For `CN1[C@@H]2CC[C@H]1C[C@@H](OC(c1ccccc1)c1ccccc1)C2` [Benztropine], the “time until benefits are seen” value is listed as at most 2 h.

system: not given; assay: not given; details: octanol/water; value not marked predicted; source not stated; cited from earlier work

First: CCCCC1=NC2(CCCC2)C(=O)N1Cc1ccc(-c2ccccc2-c2nnn[nH]2)cc1 [Irbesartan]
Second: CN(C)CCC=C1c2ccccc2C=Cc2ccccc21 [Cyclobenzaprine hydrochloride]
The LogP of the first is lower: 4.5 for the first, 5.2 for the second.

Going from `Nc1nnc(-c2cccc(Cl)c2Cl)c(N)n1` [Lamotrigine] to `CC1=NS(=O)(=O)c2cc(Cl)ccc2N1` [Diazoxide], the LogP falls from 1.93 to 1.20.

Compared with `N[C@@H](Cc1cc(I)c(Oc2cc(I)c(O)c(I)c2)c(I)c1)C(=O)O` [Levothyroxine], `Nc1ccc(O)c(C(=O)O)c1` [Mesalamine] is lower in LogP: 4.0 for the first, −0.29 for the second.

`NCC(CC(=O)O)c1ccc(Cl)cc1` (centres unmarked) [Baclofen] and `COc1ccccc1OCC(O)CO` (centres unmarked) [Guaifenesin] are within 0.2 log units of each other in LogP: 1.3 for the first, 1.39 for the second.

Compared with `NCCCC[C@H](N[C@@H](CCc1ccccc1)C(=O)O)C(=O)N1CCC[C@H]1C(=O)O` [Lisinopril dihydrate], `Cc1cnc(NC(=O)C2=C(O)c3ccccc3S(=O)(=O)N2C)s1` [Meloxicam] is higher in LogP: −1.01 for the first, 0.1 for the second.

Compared with `COc1ccccc1OCCNCC(O)COc1cccc2[nH]c3ccccc3c12` (centres unmarked) [Carvedilol], `C[C@H]1c2cccc(O)c2C(=O)C2=C(O)[C@]3(O)C(=O)C(C(N)=O)=C(O)[C@@H](N(C)C)[C@@H]3[C@@H](O)[C@@H]21` [Doxycycline] is lower in LogP: 3.8 for the first, 0.63 for the second.

Compared with `NC(=O)c1cnccn1` [Pyrazinamide], `CC(C[N+](C)(C)C)OC(N)=O` (centres unmarked) [Bethanechol chloride] is lower in LogP: −0.60 for the first, −4.1 for the second.

First: C#C[C@]1(O)CC[C@H]2[C@@H]3CCc4cc(O)ccc4[C@H]3CC[C@@]21C [Ethinylestradiol]
Second: CC(=O)S[C@@H]1CC2=CC(=O)CC[C@]2(C)[C@H]2CC[C@@]3(C)[C@@H](CC[C@@]34CCC(=O)O4)[C@H]12 [Spironolactone]
The LogP of the first is higher: 3.67 for the first, 2.78 for the second.

Going from `CC[C@H](C)C(=O)O[C@H]1C[C@@H](C)C=C2C=C[C@H](C)[C@H](CC[C@@H]3C[C@@H](O)CC(=O)O3)[C@H]21` [Lovaststin] to `CNC(=C[N+](=O)[O-])NCCSCc1ccc(CN(C)C)o1` [Ranitidine], the LogP falls from 4.08 to 0.2.

First: CC(C)(S)[C@@H](N)C(=O)O [D-penicillamine]
Second: Cc1ncc(CO)c(CO)c1O [Pyridoxine]
The LogP of the first is lower: −1.78 for the first, −0.77 for the second.
